Reference: ChEMBL document CHEMBL4334438, “Discovery of novel glycogen synthase kinase-3α inhibitors: Structure-based virtual screening, preliminary SAR and biological evaluation for treatment of acute myeloid leukemia” (Eur J Med Chem, 2019)
Activity calls are given as the source filed them. No cut-off for these calls is given here.

Columns and labels:
[1] = tested on: HL-60; experiment: Antiproliferative activity against human HL60 cells assessed as reduction in viability after 3 days by SRB assay; type: functional, cell-based
[2] = tested on: NB-4; experiment: Antiproliferative activity against human NB4 cells assessed as reduction in viability after 3 days by SRB assay; type: functional, cell-based
[3] = tested on: HL-60; experiment: Inhibition of colony formation in human HL60 cells preincubated for 72 hrs followed by compound washout and measured after 7 to 10 days; type: functional, cell-based
[4] = tested on: NB-4; experiment: Inhibition of colony formation in human NB4 cells preincubated for 72 hrs followed by compound washout and measured after 7 to 10 days; type: functional, cell-based
[5] = tested on: HL-60; experiment: Induction of cell death in human HL60 cells at 10 to 30 uM after 6 days by trypan blue assay; type: cell-based; details: hl-60, 144 h
[6] = tested on: HL-60; experiment: Induction of cell differentiation in human HL60 cells assessed as increase in CD11b-APC-Cy7 positive cells after 6 days by flow cytometry analysis; type: functional, cell-based
[7] = tested on: NB-4; experiment: Induction of cell differentiation in human NB4 cells assessed as increase in CD11b-APC-Cy7 positive cells after 6 days by flow cytometry analysis; type: functional, cell-based
[8] = tested on: HL-60; experiment: Induction of cell differentiation in human HL60 cells assessed as increase in CD11c-APC positive cells after 6 days by flow cytometry analysis; type: functional, cell-based
[9] = tested on: NB-4; experiment: Induction of cell differentiation in human NB4 cells assessed as increase in CD11c-APC positive cells after 6 days by flow cytometry analysis; type: functional, cell-based
[10] = tested on: HL-60; experiment: Induction of cell differentiation in human HL60 cells assessed as increase in CD14-FITC positive cells after 6 days by flow cytometry analysis; type: functional, cell-based
[11] = tested on: NB-4; experiment: Induction of cell differentiation in human NB4 cells assessed as increase in CD14-FITC positive cells after 6 days by flow cytometry analysis; type: functional, cell-based
[12] = tested on: HL-60; experiment: Induction of monocytic differentiation in human HL60 cells assessed as increase in CD11b-APC-Cy7 positive cells at 30 uM after 6 days by flow cytometry analysis; type: functional, cell-based
[13] = tested on: HL-60; experiment: Induction of monocytic differentiation in human HL60 monocytic assessed as increase in CD11c-APC positive cells at 30 uM after 6 days by flow cytometry analysis; type: functional, cell-based
[14] = tested on: NB-4; experiment: Induction of monocytic differentiation in human NB4 cells assessed as increase in CD14 positive cells at 30 uM after 6 days by FITC staining based flow cytometry analysis; type: functional, cell-based
[15] = target: T1, Glycogen synthase kinase-3 alpha (Homo sapiens, UniProt P49840); experiment: Inhibition of GSK-3alpha phosphorylation at Y279 residue in human HL60 cells after 24 hrs by Western blot analysis; type: cell-based
T1 sequence (P49840 2-483 limits assumed): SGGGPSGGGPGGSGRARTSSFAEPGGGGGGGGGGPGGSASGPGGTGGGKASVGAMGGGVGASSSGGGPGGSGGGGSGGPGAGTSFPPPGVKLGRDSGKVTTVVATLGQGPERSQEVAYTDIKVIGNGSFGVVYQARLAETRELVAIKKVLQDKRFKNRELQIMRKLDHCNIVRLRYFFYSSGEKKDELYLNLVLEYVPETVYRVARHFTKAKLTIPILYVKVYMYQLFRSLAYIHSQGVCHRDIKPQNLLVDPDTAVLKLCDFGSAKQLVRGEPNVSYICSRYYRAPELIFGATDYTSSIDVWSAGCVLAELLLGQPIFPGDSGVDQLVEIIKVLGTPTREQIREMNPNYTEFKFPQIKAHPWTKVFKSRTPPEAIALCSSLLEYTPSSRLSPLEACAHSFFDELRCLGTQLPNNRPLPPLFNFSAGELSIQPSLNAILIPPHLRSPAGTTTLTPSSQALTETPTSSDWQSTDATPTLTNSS

[16] = target: T1, Glycogen synthase kinase-3 alpha; experiment: Inhibition of GSK-3alpha phosphorylation at Y279 residue in human NB4 cells after 24 hrs by Western blot analysis; type: cell-based
[17] = Activation of wnt/beta-catenin signalling pathway in human HL60 cells assessed as stabilization of beta-catenin at 1 to 30 uM after 24 hrs by Western blot analysis; type: cell-based
[18] = tested on: HL-60; experiment: Effect on total beta-catenin level in human HL60 cells at 1 to 30 uM after 24 hrs by Western blot analysis; type: ADME, cell-based; details: hl-60, 24 h
[19] = tested on: NB-4; experiment: Effect on total beta-catenin level in human NB4 cells at 1 to 30 uM after 24 hrs by Western blot analysis; type: ADME, cell-based; details: nb-4, 24 h
[20] = target: Cyclin-Y/Cyclin-dependent kinase 16 (Homo sapiens) (UniProt Q00536+Q8ND76); experiment: Inhibition of recombinant full length human CDK16/cyclinY assessed as residual activity at 1 uM using PKSPKARKKL as substrate incubated for 120 mins in presence of [gamma-33ATP] by scintillation counting based radiometry assay relative to control; type: protein-complex assay
[21] = target: CDK17/Cyclin-Y (Homo sapiens) (UniProt Q00537+Q8ND76); experiment: Inhibition of recombinant full length human CDK17/cyclinY assessed as residual activity at 1 uM using PKSPKARKKL as substrate incubated for 120 mins in presence of [gamma-33ATP] by scintillation counting based radiometry assay relative to control; type: protein-complex assay
[22] = target: Casein kinase I isoform epsilon (Homo sapiens) (UniProt P49674); experiment: Inhibition of recombinant human CK1epsilon assessed as residual activity at 1 uM using KRRRALS(p)VASLPGL as substrate incubated for 120 mins in presence of [gamma-33ATP] by scintillation counting based radiometry assay relative to control
Casein kinase I isoform epsilon (Homo sapiens), sequence (P49674 whole entry, looked up, canonical isoform): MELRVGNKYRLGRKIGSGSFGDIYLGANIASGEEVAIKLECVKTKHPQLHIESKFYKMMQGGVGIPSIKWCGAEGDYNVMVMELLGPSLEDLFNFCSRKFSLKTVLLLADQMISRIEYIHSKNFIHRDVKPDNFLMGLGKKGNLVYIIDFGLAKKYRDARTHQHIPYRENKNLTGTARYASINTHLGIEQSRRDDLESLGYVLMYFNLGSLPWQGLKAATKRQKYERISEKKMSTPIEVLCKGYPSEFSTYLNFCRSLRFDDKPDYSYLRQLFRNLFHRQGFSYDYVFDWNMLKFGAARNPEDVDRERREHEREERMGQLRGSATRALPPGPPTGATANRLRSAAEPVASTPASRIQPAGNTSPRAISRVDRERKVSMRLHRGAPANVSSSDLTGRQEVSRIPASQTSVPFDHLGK

[23] = target: Citron Rho-interacting kinase (Homo sapiens) (UniProt O14578); experiment: Inhibition of recombinant human CRIK assessed as residual activity at 1 uM KKLRRTLSVA as substrate incubated 120 mins by scintillation counting method relative to control
Citron Rho-interacting kinase (Homo sapiens), sequence (O14578 whole entry): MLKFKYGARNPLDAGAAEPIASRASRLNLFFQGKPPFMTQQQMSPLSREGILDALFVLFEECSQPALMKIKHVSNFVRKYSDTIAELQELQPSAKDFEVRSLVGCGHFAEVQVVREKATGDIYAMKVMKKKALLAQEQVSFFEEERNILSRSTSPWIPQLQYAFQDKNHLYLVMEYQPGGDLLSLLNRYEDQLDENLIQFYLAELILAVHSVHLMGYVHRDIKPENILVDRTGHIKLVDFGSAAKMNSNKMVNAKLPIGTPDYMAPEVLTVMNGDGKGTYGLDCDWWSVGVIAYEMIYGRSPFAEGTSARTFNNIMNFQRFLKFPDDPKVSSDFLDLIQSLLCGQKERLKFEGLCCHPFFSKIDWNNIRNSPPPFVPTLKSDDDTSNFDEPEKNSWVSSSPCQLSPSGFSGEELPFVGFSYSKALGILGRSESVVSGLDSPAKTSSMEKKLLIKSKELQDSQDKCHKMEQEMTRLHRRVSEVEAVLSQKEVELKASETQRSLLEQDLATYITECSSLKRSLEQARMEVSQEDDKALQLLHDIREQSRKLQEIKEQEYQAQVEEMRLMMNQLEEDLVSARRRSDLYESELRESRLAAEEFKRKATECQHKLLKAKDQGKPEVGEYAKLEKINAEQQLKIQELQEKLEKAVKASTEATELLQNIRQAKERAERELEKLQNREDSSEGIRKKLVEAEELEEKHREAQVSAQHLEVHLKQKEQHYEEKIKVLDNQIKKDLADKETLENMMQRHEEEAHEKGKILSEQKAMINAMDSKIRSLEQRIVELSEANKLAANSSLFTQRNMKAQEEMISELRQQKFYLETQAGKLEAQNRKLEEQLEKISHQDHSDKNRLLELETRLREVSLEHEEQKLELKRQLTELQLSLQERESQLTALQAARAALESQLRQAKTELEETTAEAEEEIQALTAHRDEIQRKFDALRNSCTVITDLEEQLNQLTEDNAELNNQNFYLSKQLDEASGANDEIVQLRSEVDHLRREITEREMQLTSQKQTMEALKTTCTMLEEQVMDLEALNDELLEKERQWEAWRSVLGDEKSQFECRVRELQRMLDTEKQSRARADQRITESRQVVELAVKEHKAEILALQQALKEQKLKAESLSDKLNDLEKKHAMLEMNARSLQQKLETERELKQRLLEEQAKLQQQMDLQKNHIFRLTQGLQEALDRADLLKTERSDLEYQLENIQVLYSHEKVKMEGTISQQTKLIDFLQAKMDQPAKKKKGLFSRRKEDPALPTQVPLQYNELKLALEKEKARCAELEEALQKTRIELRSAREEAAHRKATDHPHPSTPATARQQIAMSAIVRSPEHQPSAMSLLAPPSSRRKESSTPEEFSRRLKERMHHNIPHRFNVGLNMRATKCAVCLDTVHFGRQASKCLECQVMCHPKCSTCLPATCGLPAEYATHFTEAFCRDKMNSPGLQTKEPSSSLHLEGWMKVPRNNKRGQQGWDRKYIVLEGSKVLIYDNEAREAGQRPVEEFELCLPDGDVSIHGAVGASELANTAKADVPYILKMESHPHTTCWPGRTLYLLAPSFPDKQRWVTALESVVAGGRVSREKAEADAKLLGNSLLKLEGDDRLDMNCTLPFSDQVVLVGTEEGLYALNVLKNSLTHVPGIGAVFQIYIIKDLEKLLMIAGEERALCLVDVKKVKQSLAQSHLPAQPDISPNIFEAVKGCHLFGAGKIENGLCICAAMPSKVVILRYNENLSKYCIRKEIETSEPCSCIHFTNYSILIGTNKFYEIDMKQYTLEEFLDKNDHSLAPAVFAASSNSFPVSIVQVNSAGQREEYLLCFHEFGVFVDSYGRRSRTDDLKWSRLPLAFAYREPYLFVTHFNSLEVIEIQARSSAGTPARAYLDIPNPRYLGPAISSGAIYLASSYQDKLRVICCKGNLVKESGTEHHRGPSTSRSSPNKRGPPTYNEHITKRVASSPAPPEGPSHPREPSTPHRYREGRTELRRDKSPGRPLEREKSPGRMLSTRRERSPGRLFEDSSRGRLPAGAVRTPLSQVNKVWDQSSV

[24] = target: Serine/threonine-protein kinase DCLK1 (Homo sapiens) (UniProt O15075); experiment: Inhibition of recombinant human DCAMKL1 assessed as residual activity at 1 uM radiometric assay relative to control
Serine/threonine-protein kinase DCLK1 (Homo sapiens), sequence (O15075 whole entry): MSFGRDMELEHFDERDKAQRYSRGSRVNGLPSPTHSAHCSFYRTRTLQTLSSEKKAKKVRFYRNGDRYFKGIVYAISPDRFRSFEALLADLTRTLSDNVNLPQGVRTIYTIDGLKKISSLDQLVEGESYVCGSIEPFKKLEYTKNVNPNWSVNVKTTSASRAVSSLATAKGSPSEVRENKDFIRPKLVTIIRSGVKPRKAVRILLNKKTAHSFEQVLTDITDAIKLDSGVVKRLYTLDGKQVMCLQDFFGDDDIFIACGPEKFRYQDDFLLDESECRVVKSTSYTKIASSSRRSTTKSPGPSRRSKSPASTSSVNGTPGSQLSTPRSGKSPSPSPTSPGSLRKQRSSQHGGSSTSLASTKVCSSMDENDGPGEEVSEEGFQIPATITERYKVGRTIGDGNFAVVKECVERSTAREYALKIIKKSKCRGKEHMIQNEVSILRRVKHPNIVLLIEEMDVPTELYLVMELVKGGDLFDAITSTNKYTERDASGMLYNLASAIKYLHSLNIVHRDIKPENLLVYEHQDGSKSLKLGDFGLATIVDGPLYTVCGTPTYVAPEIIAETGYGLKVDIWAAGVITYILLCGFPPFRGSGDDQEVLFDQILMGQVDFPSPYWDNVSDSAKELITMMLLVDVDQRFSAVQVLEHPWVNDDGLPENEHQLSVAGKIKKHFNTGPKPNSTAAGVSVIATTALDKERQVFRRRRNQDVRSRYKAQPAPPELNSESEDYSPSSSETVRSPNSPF

[25] = target: Serine/threonine-protein kinase LATS1 (Homo sapiens) (UniProt O95835); experiment: Inhibition of human LATS1 assessed as residual activity at 1 uM by radiometric assay relative to control
[26] = target: Serine/threonine-protein kinase LATS2 (Homo sapiens) (UniProt Q9NRM7); experiment: Inhibition of human LATS2 assessed as residual activity at 1 uM by radiometric assay relative to control
[27] = target: Mitogen-activated protein kinase kinase kinase 21 (Homo sapiens) (UniProt Q5TCX8); experiment: Inhibition of recombinant human MLK4 assessed as residual activity at 1 uM using by radiometry assay relative to control
[28] = target: Serine/threonine-protein kinase MRCK gamma (Homo sapiens) (UniProt Q6DT37); experiment: Inhibition of recombinant human MRCKgamma assessed as residual activity at 1 uM using KKRNRTLTV as substrate measured after 40 mins in presence of [gamma33P]ATP by scintillation counting method relative to control
[29] = target: Serine/threonine-protein kinase OSR1 (Homo sapiens) (UniProt O95747); experiment: Inhibition of recombinant human OSR1 assessed as residual activity at 1 uM relative to control
[30] = target: Serine/threonine-protein kinase PAK 5 (Homo sapiens) (UniProt Q9P286); experiment: Inhibition of recombinant human PAK5 (425 to end residues) assessed as residual activity at 1 uM using RRRLSFAEPG as substrate measured after 40 mins in presence of [gamma33P]ATP by scintillation counting method relative to control
Serine/threonine-protein kinase PAK 5 (Homo sapiens), sequence (Q9P286 whole entry, looked up, the tested form may be a part): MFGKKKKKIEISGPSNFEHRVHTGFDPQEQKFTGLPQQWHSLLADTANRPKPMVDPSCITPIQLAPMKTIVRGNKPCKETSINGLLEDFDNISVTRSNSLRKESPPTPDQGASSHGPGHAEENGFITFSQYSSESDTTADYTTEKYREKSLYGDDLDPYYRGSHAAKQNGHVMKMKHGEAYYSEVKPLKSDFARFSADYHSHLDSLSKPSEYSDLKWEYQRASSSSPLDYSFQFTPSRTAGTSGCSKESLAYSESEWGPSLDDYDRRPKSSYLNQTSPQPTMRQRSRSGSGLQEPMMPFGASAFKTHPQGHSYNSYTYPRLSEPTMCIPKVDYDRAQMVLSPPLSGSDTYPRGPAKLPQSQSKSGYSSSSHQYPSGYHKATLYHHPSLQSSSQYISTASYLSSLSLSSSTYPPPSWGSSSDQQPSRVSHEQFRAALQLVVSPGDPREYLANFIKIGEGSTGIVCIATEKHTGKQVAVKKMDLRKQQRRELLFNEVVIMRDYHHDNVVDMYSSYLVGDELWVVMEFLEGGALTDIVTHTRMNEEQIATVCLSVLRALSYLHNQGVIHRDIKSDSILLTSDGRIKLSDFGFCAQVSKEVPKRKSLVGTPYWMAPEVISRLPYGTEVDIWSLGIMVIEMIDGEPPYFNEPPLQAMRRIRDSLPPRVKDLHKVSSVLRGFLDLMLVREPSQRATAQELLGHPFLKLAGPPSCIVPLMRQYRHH

[31] = target: Receptor-interacting serine/threonine-protein kinase 2 (Homo sapiens) (UniProt O43353); experiment: Inhibition of recombinant human RIPK2 (1 to 299 residues) assessed as residual activity at 1 uM using myelin basic protein as substrate measured after 120 mins in presence of [gamma33P]ATP by scintillation counting method relative to control
Receptor-interacting serine/threonine-protein kinase 2 (Homo sapiens), sequence (O43353 whole entry, the tested form may be a part): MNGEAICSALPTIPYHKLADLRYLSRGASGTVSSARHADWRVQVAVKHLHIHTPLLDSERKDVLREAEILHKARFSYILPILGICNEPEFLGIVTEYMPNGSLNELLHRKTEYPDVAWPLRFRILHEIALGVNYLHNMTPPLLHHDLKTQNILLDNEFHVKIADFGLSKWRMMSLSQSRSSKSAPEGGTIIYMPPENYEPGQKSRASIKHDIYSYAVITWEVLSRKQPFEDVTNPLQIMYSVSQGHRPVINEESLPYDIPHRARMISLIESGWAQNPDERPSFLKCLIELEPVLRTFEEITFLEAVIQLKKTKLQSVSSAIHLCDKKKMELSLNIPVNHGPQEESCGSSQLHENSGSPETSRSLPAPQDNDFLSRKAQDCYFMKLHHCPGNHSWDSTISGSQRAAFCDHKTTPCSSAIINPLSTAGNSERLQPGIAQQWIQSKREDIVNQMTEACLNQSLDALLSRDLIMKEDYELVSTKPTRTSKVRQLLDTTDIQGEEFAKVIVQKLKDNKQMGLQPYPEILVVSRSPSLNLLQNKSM

[32] = target: STE20/SPS1-related proline-alanine-rich protein kinase (Homo sapiens) (UniProt Q9UEW8); experiment: Inhibition of recombinant human STK39 assessed as residual activity at 1 uM in presence of [gamma33P]ATP by scintillation counting based radiometry assay relative to control
[33] = target: Dual specificity mitogen-activated protein kinase kinase 7 (Homo sapiens) (UniProt O14733); experiment: Inhibition of recombinant human MKK7beta (2 to end residues) assessed as residual activity at 1 uM using inactive JNK1a1 as substrate incubated for 40 mins in presence of [gamma-33ATP by scintillation counting based radiometry assay relative to control

SMILES: C=CCOC(=O)c1cc(-c2ccc(/C=C3/NC(=S)NC3=O)o2)ccc1Cl
- Activity [1]: Dose-dependent effect
- Activity [2]: Dose-dependent effect
- inhibition [3]: Dose-dependent effect
- inhibition [4]: Dose-dependent effect
- Activity [5]: Non-Toxic
- Activity [6]: Dose-dependent effect
- Activity [7]: Dose-dependent effect
- Activity [8]: Dose-dependent effect
- Activity [9]: Dose-dependent effect
- Activity [10]: Dose-dependent effect
- Activity [11]: Dose-dependent effect
- Activity [12]: Active
- Activity [13]: Active
- Activity [14]: Active
- inhibition [15]: Dose-dependent effect
- inhibition [16]: Dose-dependent effect
- Activity [17]: Not Active
- Activity [18]: Non-Toxic
- Activity [19]: Non-Toxic
- Activity [20]: 82%
- Activity [21]: 72%
- Activity [22]: 91%
- Activity [23]: 95%
- Activity [24]: 85%
- Activity [25]: 114%
- Activity [26]: 100%
- Activity [27]: 95%
- Activity [28]: 110%
- Activity [29]: 118%
- Activity [30]: 98%
- Activity [31]: 62%
- Activity [32]: 103%

SMILES: N=C1NC(=O)/C(=C\c2ccc(-c3cccc([N+](=O)[O-])c3)o2)S1
- Activity [33]: 93%
- Activity [30]: 103%
- Activity [31]: 66%
